In PubChem BioAssay AID1902 (Broad Institute, 2009) one finds EC50 data, which are given here for 96 compounds.

In general, EC50 refers to the concentration at which the effect is half-maximal.

Calls of active or inactive are those of the source.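 Rule for the calls: active = EC50 no more than a set limit of log units above the highest dose; inactive = the rest.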

This assay deals with S. pyogenes SKKanGAS, kanamycin survival, BacTiterGlo, 6 h. The assay can be described thus: S. pyogenes SKKanGAS kanamycin growth inhibitors – SKKanGAS strain, luminescence, dose confirmation, streptokinase promoter inhibitor project, dose response (AID 1902).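 Note: lower survival reflects blocked streptokinase promoter driving kanamycin resistance gene.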
`CCC(CC)C1=NN2C(=N)/C(=C\c3cc(C)n(-c4cccc(C)c4)c3C)C(=O)N=C2S1`: the EC50 is 2.91 µM.

Take `CCc1nnc(NC(=O)c2ccc(S(=O)(=O)N(C)c3ccccc3)cc2)o1`: the EC50 is 4.71 µM.

Turning to `CCC1(C)Cc2c(sc3nc(SC)[nH]c(=S)c23)CO1` (stereo unspecified), the EC50 is 1.87 µM.

As to `Cc1onc(-c2c(F)cccc2Cl)c1C(=O)NCc1ccc2c(c1)OCO2`, the EC50 is > 15 µM (inactive).

As for `Cc1ccc(C(=O)N2CCOCC2)cc1Cl`, the EC50 is > 15 µM (inactive).

Turning to `CN=C1S/C(=C\c2ccc(N3CCOCC3)c(F)c2)C(=O)N1C`, the EC50 was 4.94 µM.

With `S=c1[nH]nc(C2CCCCC2)n1/N=C/c1c(Cl)cccc1Cl`, the EC50 is 8.36 µM.

Take `N=C1/C(=C\c2ccc(-c3cccc(C(=O)O)c3)o2)C(=O)N=C2SC=C(c3ccccc3)N12`: the EC50 is 1.2 µM.

As for `CC(C)(C)c1ccc(CN(Cc2ccco2)Cc2nnnn2C2CCCC2)cc1`, the EC50 was 4.69 µM.

As for `c1ccc2sc(SCSc3nc4ccccc4s3)nc2c1`, the EC50 was 2.86 µM.

Take `Cc1cccc(Nc2nc(N)nc(CN3CCN(c4ccc(F)cc4)CC3)n2)c1`: the EC50 was 15.6 µM.

As to `O=C(NC(=S)NNC(=O)[C@H]1C[C@@H]1c1ccccc1)c1ccc(F)cc1`, the EC50 is 0.715 µM.

`CC(C)(C)c1cc[n+](C2=C([O-])c3ccccc3C(=O)/C2=N\S(=O)(=O)c2cccs2)cc1`: the 50% effective concentration (EC50) is 2.02 µM.

As to `COc1ccc(/C=C2/C(=O)N(c3nc4ccccc4s3)N=C2CSc2ccc(Cl)cc2)cc1`, the EC50 is 0.518 µM.

Regarding `COc1ccc(OCCCC(=O)Nc2nc(-c3ccccn3)cs2)cc1`, the EC50 was 0.309 µM.

With `CC(C)=CCc1c(-c2ccc(O)cc2O)oc2cc3c(c(O)c2c1=O)C=CC(C)(C)O3`, the EC50 is 1.58 µM.

As for `C[C@H]1[C@H](C)CC[C@]2(C)CC[C@]3(C)C(=CC[C@@H]4[C@@]5(C)CC[C@@H](O)[C@](C)(C(=O)O)[C@@H]5CC[C@]43C)[C@H]12`, the EC50 was 0.997 µM.

Turning to `N#C/C(=C(/O)c1cc2ccccc2o1)c1nc2ccccc2s1`, the EC50 is 9.58 µM.

Take `CCC(Oc1ccccc1)C(=O)Nc1ccccc1N1CCCCC1` (stereo unspecified): the EC50 is 3.3 µM.

`CCOC(=O)c1ccc(Oc2cn[nH]c2-c2ccc(OCC(=O)NN)cc2O)cc1`: the EC50 is 0.357 µM.

As to `Cc1cccc(NC(=O)NCc2ccc3c(c2)OCO3)c1`, the EC50 was > 15 µM (inactive).

With `Cc1ccc(NS(=O)(=O)c2ccc(C3CCCCC3)cc2)cc1`, the EC50 was 4.32 µM.

As to `CC(C)Sc1cc(N2CCCC2)nc(-c2ccccc2)n1`, the EC50 was 11.2 µM.

On to `Cc1ccc(F)c(NC(=O)/C(C#N)=C(\O)c2ccc(C(C)(C)C)cc2)c1`, for which the EC50 was 6.33 µM.

As to `CCOc1cccc(/C=N/NC(=S)Nc2ccccc2[N+](=O)[O-])c1O`, the EC50 was 0.095 µM.

`Cc1c(Cl)cnn1CC(=O)NC1C(=O)N2C(C(=O)O)=C(CSc3nnnn3C)CSC12` (stereo unspecified): the 50% effective concentration (EC50) is less than 0.06 µM.

`O=C(CC1CC2CCC1C2)Nc1nc(-c2ccccn2)cs1` (stereo unspecified): the EC50 is 2.4 µM.

As to `O=c1[nH]c(=O)n([C@H]2C[C@H](O)[C@@H](CO)O2)cc1F`, the EC50 is 0.689 µM.

As to `OC(COc1ccc2ccccc2c1Br)Cn1cnc(-c2ccccc2)c1` (stereo unspecified), the EC50 is 5.71 µM.

With `Cc1ccc2sc(NNC(=O)c3cc(=O)c4ccccc4o3)nc2c1C`, the EC50 was 1.18 µM.

With `Cc1cccc(Cc2cnc(N3C(=N)SC(C)C3=O)s2)c1` (stereo unspecified), the 50% effective concentration (EC50) is 0.131 µM.

As for `Cc1noc(C)c1C(=O)Nc1ccc2ccccc2c1`, the EC50 was > 15 µM (inactive).

As to `CCC(=O)Nc1ccc(Nc2nc(C)c([N+](=O)[O-])c(Nc3ccc(NC(=O)CC)cc3)n2)cc1`, the EC50 is 1.56 µM.

Regarding `O=C(CNc1ccccc1)N/N=C/c1c(O)ccc2ccccc12`, the EC50 is 0.74 µM.

For the compound `C/C(=N\NC(=O)c1cc(Br)ccc1O)c1cccc(NC(=O)c2ccccc2F)c1`, the EC50 was 2.87 µM.

`Cc1ccn2c(Nc3ccccc3C)c(-c3ccccn3)nc2c1`: the 50% effective concentration (EC50) is 2.19 µM.

`Cc1nn(-c2ccccc2)c(C)c1/C=N/n1c(-c2ccc(C(C)(C)C)cc2)n[nH]c1=S`: the EC50 was 2.62 µM.

`O=C(N/N=C/c1c(O)n(C2CCCCC2)c(=S)[nH]c1=O)c1ccccc1`: the EC50 was 0.659 µM.

In the case of `Cc1cc2oc(=O)cc(CNc3ccccc3F)c2cc1O`, the EC50 was 10.2 µM.

As to `CCCOc1ccc(C(=O)NNC(=S)NC(=O)c2ccccc2)cc1`, the EC50 was 0.217 µM.

For the compound `O=C(O)c1cccc(N/N=C/C2=C(Cl)c3cc(Cl)ccc3SC2)c1`, the EC50 was 1.77 µM.

For `O=[N+]([O-])c1ccc(/C=N/Nc2nc(N3CCCCCC3)nc(N3CCCCCC3)n2)o1`, the EC50 was 0.618 µM.

On to `CCOc1cc(/C=N/Nc2cc(C)nc(-n3nc(C)cc3C)n2)ccc1O`, for which the EC50 was 0.853 µM.

In the case of `CCSc1nnc(NC(=O)c2nc(-c3ccccc3)n(-c3ccccc3)n2)s1`, the EC50 is 3.49 µM.

As for `O=C(NCc1ccc2c(c1)OCO2)C(=O)NCC1OCCN1S(=O)(=O)c1ccc(Br)cc1` (stereo unspecified), the EC50 was > 15 µM (inactive).

`Oc1c(Br)cc(Br)cc1/C=N/Nc1ccc(Cl)nn1`: the EC50 was 0.481 µM.

For `N=C(N)c1ccc(/C=C/c2ccc(C(=N)N)cc2O)cc1`, the EC50 is 3.34 µM.

With `CCCCCCCCCCCCC(NC(C)=O)(C(=O)OCC)C(=O)OCC`, the EC50 was 6.05 µM.

As for `O=c1c2cc(Cl)ccc2nc(-c2ccc(Cl)c(Cl)c2)n1O`, the EC50 was 0.235 µM.

Regarding `CCCCCCCCCCC(=O)NNC(=O)c1c(O)c2ccccc2n(CC)c1=O`, the half-maximal effective concentration (EC50) was 0.185 µM.

As to `CC(C)C1Cc2c(sc3[nH]c(=S)n(Cc4ccccc4)c(=O)c23)CO1` (stereo unspecified), the EC50 is 2.93 µM.

With `CC(OC(=O)CC1CCCC1)C(=O)Nc1ccc(S(N)(=O)=O)cc1` (stereo unspecified), the EC50 is > 15 µM (inactive).

Turning to `Cc1ccccc1N=Nc1ccc(O)c2ncccc12`, the EC50 is 0.069 µM.

Take `NC(=O)NC(=O)CSc1nc2sc(-c3ccccc3)cc2c(=O)n1-c1ccccc1`: the EC50 was 1.18 µM.

On to `COc1cc(/C=N/NC(=O)c2nnn(-c3nonc3N)c2C(C)C)ccc1OCc1ccc(F)cc1`, for which the EC50 is 11.3 µM.

`COc1cccc(-c2coc3c(C)c4oc(=O)c(CCC(=O)O)c(C)c4cc23)c1`: the EC50 was 3.73 µM.

Take `O=C(OCc1ccc(-c2ccccc2)cc1)c1cccc(O)c1`: the EC50 was 6.29 µM.

For the compound `O=[N+]([O-])c1cc(S(=O)(=O)C(F)(F)F)ccc1Sc1nc2ccccc2[nH]1`, the half-maximal effective concentration (EC50) was 4.1 µM.

For `Cc1[nH]n(-c2ccc(Cl)cc2)c(=O)c1/C=N/n1c(C)nc2ccccc2c1=O`, the EC50 is 1.44 µM.

Consider `COc1ccc(NC(=S)N=Nc2c(O)[nH]c3ccccc23)cc1`, for which the EC50 is 1.09 µM.

For `O=C(N/N=C/c1c(O)n(C2CCCCC2)c(=S)[nH]c1=O)c1ccccc1O`, the EC50 was 0.601 µM.

Turning to `CCc1ccc(/C=C2\SC(=S)N(CCCC(=O)Nc3ccc(C(=O)O)cc3)C2=O)cc1`, the EC50 was 7.83 µM.

For `Cc1ccc(-c2cc(C(F)F)nc(N3CCC(C)CC3)n2)cc1`, the EC50 is 5.48 µM.

Regarding `S=C(NCCSCc1ccc(Cl)cc1Cl)Nc1ccccc1`, the EC50 is 7.32 µM.

Take `Cc1nnc(NC(=O)c2ccc(S(=O)(=O)N3CC(C)CC(C)C3)cc2)o1` (stereo unspecified): the EC50 was 5.82 µM.

Turning to `O=C(Nc1nc2ccccc2[nH]1)c1cccc(Cl)c1`, the EC50 was 10.4 µM.

`COc1ccc(S(=O)(=O)NCC2CCCN(Cc3ccc(OC)cc3F)C2)cc1` (stereo unspecified): the EC50 was > 15 µM (inactive).

As to `Cc1ccc(Nc2nc3nonc3[nH]c2=O)cc1Cl`, the EC50 was 2.54 µM.

As to `Cc1ccc(C)c(CSC2=NCCN2S(=O)(=O)c2ccccc2)c1`, the EC50 is 15.7 µM.

For the compound `O=C(NC12CC3CC(CC(C3)C1)C2)c1ccc([N+](=O)[O-])o1`, the EC50 was 2 µM.

`O=C(CN1c2ccccc2Sc2ccccc21)NNC(=S)Nc1ccc(Cl)cc1`: the half-maximal effective concentration (EC50) is 2.67 µM.

Take `O=C(COc1ccc([N+](=O)[O-])cc1)Nc1nc(-c2ccccn2)cs1`: the concentration giving a half-maximal response (EC50) is 3.68 µM.

As to `O=C(NC(=S)N(CCCCO)C1CCCCC1)c1sc2ccccc2c1Cl`, the EC50 is 0.527 µM.

Turning to `CC(C)(C)c1cc(C(=O)NNc2cc(C(F)(F)F)ccc2Cl)n(Cc2ccccc2)n1`, the EC50 is 4.92 µM.

Consider `CC1CCCN(S(=O)(=O)c2ccc(C(=O)Nc3nnc(C4=COCCO4)o3)cc2)C1` (stereo unspecified), for which the EC50 was 5.27 µM.

Turning to `O=C(O)c1cc(-c2ccc(-c3c(-c4ccc5c(c4)OCO5)noc3-c3ccsc3)cc2)nc2ccccc12`, the EC50 is 1.84 µM.

In the case of `Oc1ccc(COCc2ccccc2)c2cccnc12`, the EC50 is 1.85 µM.

As to `COc1ccccc1N1CCN(C(=O)/C=C/c2c(Cl)nc3ccccn23)CC1`, the EC50 was 1.6 µM.

`Cc1noc(C)c1S(=O)(=O)N(CCc1ccccc1)Cc1ccccc1`: the EC50 is 5.83 µM.

`O=C1[C@H]2C(c3ccccc3)=NN(c3ccccc3)[C@H]2C(=O)N1c1ccccc1`: the EC50 was 0.485 µM.

Regarding `COC(=O)c1cc(-c2ccc(OC)cc2F)nc2nc(SC)[nH]c(=O)c12`, the EC50 was 2.57 µM.

For the compound `O=C(Cc1ccccc1)Nn1c(O)c(/C=C2\C=Nc3ccccc32)sc1=S`, the EC50 is 14.6 µM.

Turning to `N#CC(C(=O)C12CC3CC(CC(C3)C1)C2)c1nc2ccccc2[nH]1` (stereo unspecified), the EC50 is 3.23 µM.

In the case of `COc1cc2c(C(=O)N3CCN(c4ccccc4C)CC3)c(C)oc2cc1Br`, the EC50 was 10.3 µM.

For the compound `CCc1ccc(NC2=NCC(c3ccccc3)S2)cc1` (stereo unspecified), the EC50 is 6.4 µM.

`O=C(/C=C/c1cccs1)NC(=S)NNC(=O)Cc1cccs1`: the EC50 is 2.56 µM.

In the case of `CC12CCC(c3c(C(=O)Nc4nccs4)nn(-c4ccccc4)c31)C2(C)C` (stereo unspecified), the concentration giving a half-maximal response (EC50) was 3.4 µM.

For the compound `Cc1ccccc1/C=N/Nc1nc2ccccc2[nH]1`, the EC50 was 5.3 µM.

Regarding `Nc1nc(-c2ccccn2)nc(N)c1Cc1ccc(Cl)cc1Cl`, the EC50 is 5.03 µM.

As to `C/C(=N\NC(=O)c1ccc(Cl)cc1)c1ccccn1`, the EC50 is 1.48 µM.

For `CCC(C)Sc1cccc(-c2nc3ccc(C)cn3c2NCc2ccccc2)c1` (stereo unspecified), the EC50 is 3.24 µM.

For the compound `O=C(NNC(=S)NC(=O)c1ccccc1)c1ccc(O)cc1`, the EC50 is 2.26 µM.

Regarding `COc1ccc(NC(=O)C(OC(=O)c2cnc(C)cn2)c2ccccc2)cc1Cl` (stereo unspecified), the 50% effective concentration (EC50) is 11.7 µM.

As for `COc1cc(C(=O)NC(=S)Nc2ccc(Cc3ccncc3)cc2)cc(OC)c1OC`, the EC50 is 2.45 µM.

As to `COc1ccccc1NC(=O)Nc1nc(CC(=O)Nc2cc(F)ccc2F)cs1`, the EC50 was 8.85 µM.

As for `Cc1c(C(=O)N/N=C/c2ccc(Cl)cc2)[nH]c2ccc(Cl)cc12`, the EC50 is 2.71 µM.
